Source: patent publication US4393225A, “AI-77 Compounds and pharmaceutically acceptable salts thereof” (Asahi Kasei Kogyo Kabushiki Kaisha, priority 1979, dated 1983)

tested on: ulcer; assay: Anti-ulcer test (restraint and water immersion ulcer in rats, i.p.); assay type: in vivo, Male Wistar rats; conditions: Rattus norvegicus, ip; 25 mg/kg i.p.; read-out: % Inhibition of Ulcer
Outline: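 Male Wistar rats (~150 g), fasted 24 h, dosed i.p. with compound in physiological saline; 1 h later restrained and immersed to xiphisternum in 21 °C water for 6 h. Stomachs examined microscopically, ulcers scored 0–3, and percent inhibition calculated.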

| Compound | inhibition in vivo at 25 mg/kg [%] |
| --- | --- |
| CCCCOc1cccc2c1C(=O)OC(C(CC(C)C)NC(=O)C(OC)C(O)C(CC(N)=O)NC(C)=O)C2 (stereo not drawn) [VII-34-1] | 66 |
| CCCCOC(C(=O)NC(CC(C)C)C1Cc2cccc(OC)c2C(=O)O1)C(O)C(CC(N)=O)NC (stereo not drawn) [VII-25-1] | 66 |
| COC(C(=O)NC(CC(C)C)C1Cc2cccc(OC(C)=O)c2C(=O)O1)C(O)C(N)CC(N)=O (stereo not drawn) [VII-9-3] | 72 |
| CCCCCC(=O)OC(C)CCNC(=O)CC(N)C(O)C(O)C(=O)NC(CC(C)C)C1Cc2cccc(O)c2C(=O)O1 (stereo not drawn) [VII-1-29] | 94 |
| CCNC(CC(N)=O)C(O)C(OC(=O)CC)C(=O)NC(CC(C)C)C1Cc2cccc(OC(=O)C(C)C)c2C(=O)O1 (stereo not drawn) [VII-12-1] | 56 |
| CCCC(=O)Oc1cccc2c1C(=O)OC(C(CC(C)C)NC(=O)C(OC(C)=O)C(O)C(N)CC(N)=O)C2 (stereo not drawn) [VII-3-2] | 78 |
| CCOc1cccc2c1C(=O)OC(C(CC(C)C)NC(=O)C(OC(=O)C(C)C)C(O)C(CC(N)=O)NC)C2 (stereo not drawn) [VII-24-2] | 66 |
| Cc1ccc(NC(=O)CC(N)C(O)C(O)C(=O)NC(CC(C)C)C2Cc3cccc(O)c3C(=O)O2)cc1 (stereo not drawn) [VII-1-43] | 94 |
| CCOc1cccc2c1C(=O)OC(C(CC(C)C)NC(=O)C(O)C(O)C(N)CC(N)=O)C2 (stereo not drawn) [VII-5-2] | 78 |
| CC(C)CC(NC(=O)C(O)C(O)C(N)CC(=O)NCCc1ccccc1)C1Cc2cccc(O)c2C(=O)O1 (stereo not drawn) [VII-1-13] | 89 |
| CC(C)CC(NC(=O)C(O)C(O)C(N)CC(=O)NCC1CCCO1)C1Cc2cccc(O)c2C(=O)O1 (stereo not drawn) [VII-1-15] | 89 |
| CCCCOc1cccc2c1C(=O)OC(C(CC(C)C)NC(=O)C(O)C(O)C(CC(=O)NC)NCC)C2 (stereo not drawn) [VII-14-1] | 72 |
| CCC(=O)CNC(=O)CC(N)C(O)C(O)C(=O)NC(CC(C)C)C1Cc2cccc(O)c2C(=O)O1 (stereo not drawn) [VII-1-21] | 100 |
| CCCCNC(=O)CC(N)C(O)C(O)C(=O)NC(CC(C)C)C1Cc2cccc(O)c2C(=O)O1 (stereo not drawn) [VII-1-4] | 100 |
| COC(C(=O)NC(CC(C)C)C1Cc2cccc(OC(=O)C(C)C)c2C(=O)O1)C(O)C(CC(N)=O)NC(C)=O (stereo not drawn) [VII-36-1] | 66 |
| CC(C)CC(NC(=O)C(O)C(O)C(N)CC(=O)NCCC1CCCCO1)C1Cc2cccc(O)c2C(=O)O1 (stereo not drawn) [VII-1-16] | 94 |
| CC(C)CC(NC(=O)C(O)C(O)C(N)CC(=O)NCc1ccco1)C1Cc2cccc(O)c2C(=O)O1 (stereo not drawn) [VII-1-14] | 89 |
| CC(C)CC(NC(=O)C(O)C(O)C(N)CC(=O)NCCCC1CCCC1)C1Cc2cccc(O)c2C(=O)O1 (stereo not drawn) [VII-1-34] | 83 |

same assay, conditions: Rattus norvegicus, ip; 50 mg/kg i.p.; read-out: % Inhibition of Ulcer

| Compound | inhibition in vivo at 50 mg/kg [%] |
| --- | --- |
| CCNC(CC(=O)O)C(O)C(O)C(=N)NC(CC(C)C)C1Cc2cccc(OC(C)=O)c2C(=O)O1 (stereo not drawn) [Vb-13-1] | 78 |
| CCC(=O)OC(C(=O)NC(CC(C)C)C1Cc2cccc(OC(=O)C(C)C)c2C(=O)O1)C1OC(=O)CC1NC(C)=O (stereo not drawn) [IIIa-3-2] | 33 |
| CCCCCOC(=O)c1ccc(C(=O)NC2CC(=O)OC2C(O)C(=O)NC(CC(C)C)C2Cc3cccc(O)c3C(=O)O2)cc1 (stereo not drawn) [IIIa-1-51] | 44 |
| CNC1CC(=O)OC1C(OC)C(=O)NC(CC(C)C)C1Cc2cccc(OC(C)=O)c2C(=O)O1 (stereo not drawn) [IIIa-35-1] | 56 |
| CC(=O)Oc1cccc2c1C(=O)OC(C(CC(C)C)NC(=O)C(OC(C)=O)C1OC(=O)CC1NC(=O)c1ccc(OCCC(C)C)cc1)C2 (stereo not drawn) [IIIa-3-9] | 22 |
| CCCCCCCCCCCCCCCCCCNC1CC(=O)OC1C(OCC)C(=O)NC(CC(C)C)C1Cc2cccc(OCCCCCCC)c2C(=O)O1 (stereo not drawn) [IIIa-24-4] | 44 |
| CC(C)CC(NC(=O)C(O)C1OC(=O)CC1NC(=O)Cc1cccnc1)C1Cc2cccc(O)c2C(=O)O1 (stereo not drawn) [IIIa-1-58] | 66 |
| CCCCOC(C(=O)NC(CC(C)C)C1Cc2cccc(O)c2C(=O)O1)C1OC(=O)CC1NC(C)=O (stereo not drawn) [IIIa-8-1] | 56 |
| CCC(=O)COc1cccc2c1C(=O)OC(C(CC(C)C)NC(=O)C(O)C1OC(=O)CC1NC(=O)C(Cl)(Cl)Cl)C2 (stereo not drawn) [IIIa-5-125] | 33 |
| CCOc1cccc2c1C(=O)OC(C(CC(C)C)NC(=O)C(O)C1OC(=O)CC1NCC(Cl)(Cl)Cl)C2 (stereo not drawn) [IIIa-22-13] | 78 |
| CCCCCCCCCCCCCCCCCC(=O)Oc1cccc2c1C(=O)OC(C(CC(C)C)NC(=N)C(O)C(O)C(N)CC(=O)O)C2 (stereo not drawn) [Vb-4-2] | 56 |
| CCCCCSCC(=O)NC1CC(=O)OC1C(O)C(=O)NC(CC(C)C)C1Cc2cccc(O)c2C(=O)O1 (stereo not drawn) [IIIa-1-45] | 66 |
| CC(C)CC(NC(=O)C(O)C1OC(=O)CC1N)C1Cc2cccc(OCC3CCCO3)c2C(=O)O1 (stereo not drawn) [IIIa-13-14] | 89 |
| CCOc1cccc2c1C(=O)OC(C(CC(C)C)NC(=O)C(O)C1OC(=O)CC1NC(=O)C(C)=C(C)Br)C2 (stereo not drawn) [IIIa-5-77] | 44 |
| CCOc1cccc2c1C(=O)OC(C(CC(C)C)NC(=O)C(O)C1OC(=O)CC1NC(=O)c1cccn1C(C)=O)C2 (stereo not drawn) [IIIa-5-28] | 44 |
| CCOc1cccc2c1C(=O)OC(C(CC(C)C)NC(=O)C(OC(C)=O)C1OC(=O)CC1NC)C2 (stereo not drawn) [IIIa-32-1] | 56 |
| CCOc1cccc2c1C(=O)OC(C(CC(C)C)NC(=O)C(O)C1OC(=O)CC1NC(=O)C13CC4CC(CC(C4)C1)C3)C2 (stereo not drawn) [IIIa-5-15] | 33 |
| CCCC(=O)NC1CC(=O)OC1C(OC(C)C)C(=O)NC(CC(C)C)C1Cc2cccc(OCC3CCCCC3)c2C(=O)O1 (stereo not drawn) [IIIa-7-12] | 33 |
| COC(C(=O)NC(CC(C)C)C1Cc2cccc(OC(C)=O)c2C(=O)O1)C1OC(=O)CC1N (stereo not drawn) [IIIa-17-1] | 56 |
| C/C=C/C(=O)Oc1cccc2c1C(=O)OC(C(CC(C)C)NC(=O)C(O)C1C=CC(=O)O1)C2 (stereo not drawn) [IVa-3-18] | 33 |
| CCCC(=O)NC1CC(=O)OC1C(O)C(=O)NC(CC(C)C)C1Cc2cccc(O)c2C(=O)O1 (stereo not drawn) [IIIa-1-3] | 66 |
| CNC(CC(=O)O)C(O)C(O)C(=N)NC(CC(C)C)C1Cc2cccc(O)c2C(=O)O1 (stereo not drawn) [Vb-19-1] | 100 |
| CCCCCC(=O)OC(C(=O)NC(CC(C)C)C1Cc2cccc(O)c2C(=O)O1)C1C=CC(=O)O1 (stereo not drawn) [IVa-1-7] | 44 |
| CC(=O)n1cccc1C(=O)NC1CC(=O)OC1C(O)C(=O)NC(CC(C)C)C1Cc2cccc(O)c2C(=O)O1 (stereo not drawn) [IIIa-1-28] | 66 |
| CCOc1cccc2c1C(=O)OC(C(CC(C)C)NC(=O)C(O)C1OC(=O)CC1NC(=O)C1CCCO1)C2 (stereo not drawn) [IIIa-5-23] | 44 |
| CCNC(CC(=O)O)C(O)C(O)C(=N)NC(CC(C)C)C1Cc2cccc(OC)c2C(=O)O1 (stereo not drawn) [Vb-14-1] | 89 |
| CCOc1cccc2c1C(=O)OC(C(CC(C)C)NC(=O)C(O)C1OC(=O)CC1NC(=O)c1ccc(SC)cc1)C2 (stereo not drawn) [IIIa-5-45] | 33 |
| CCCC(=O)Oc1cccc2c1C(=O)OC(C(CC(C)C)NC(=O)C(OC(C)=O)C1OC(=O)CC1N)C2 (stereo not drawn) [IIIa-11-6] | 56 |
| CCOc1cccc2c1C(=O)OC(C(CC(C)C)NC(=O)C(OC)C1OC(=O)CC1NC(C)=O)C2 (stereo not drawn) [IIIa-7-1] | 33 |
| CNC1CC(=O)OC1C(OC(=O)C(Cl)(Cl)Cl)C(=O)NC(CC(C)C)C1Cc2cccc(O)c2C(=O)O1 (stereo not drawn) [IIIa-28-3] | 66 |
